Test results as given in ChEMBL document CHEMBL1201862, “PubChem BioAssay data set” (2004).
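The compound was tested at five concentrations on cells cultured in 96-well plates, with a 48-hour exposure period. Here, GI50 denotes the concentration required for 50% inhibition of growth.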 Activity calls are given as the source filed them. No stated cut-off is given here; in the data, active = GI50 up to about 1.1 µM and inactive = higher. *1 amine or outer side, *2 acyl side, *3 side chain or, on linkers, in order; H or OH if unused. Where a SMILES comes first, the peptide text is derived from it. [ ]: non-standard residue; d: D form. The star is where a group is joined. ξ: configuration not given here. X43 = CCC(=O)CC(O)CC(C)CC(N[*:1])C(=O)[*:2]; ξLeu(3ξ-OH) = CC(C)C(O)C(N)C(=O)O; ξPro(4ξ-Me) = CC1CNC(C(=O)O)C1; X42 = CCC(C)/C=C/C(=O)*; Aib = CC(C)(N)C(=O)O; X44 = CC(CN(C)C)N*; βAla = NCCC(=O)O

What was measured:
Assay in all cases: NCI-60 cell line screen, 48 h
ACHN = tested on: ACHN
A498 = tested on: A498
U-251 = tested on: U-251
SNB-78 = tested on: SNB-78
RPMI-8226 = tested on: RPMI-8226
HOP-92 = tested on: HOP-92
NCI-H23 = tested on: NCI-H23
SF-539 = tested on: SF-539
M14 = tested on: M14
OVCAR-4 = tested on: OVCAR-4
SK-MEL-28 = tested on: SK-MEL-28
SR = tested on: SR
SN12C = tested on: SN12C
HCC 2998 = tested on: HCC 2998
786-0 = tested on: 786-0
KM-20L2 = tested on: KM-20L2
A549 = tested on: A549
MDA-MB-231 = tested on: MDA-MB-231
PC-3 = tested on: PC-3
Hs-578T = tested on: Hs-578T

SMILES | GI50 (ACHN) | GI50 (A498) | GI50 (U-251) | GI50 (SNB-78) | GI50 (RPMI-8226) | GI50 (HOP-92) | GI50 (NCI-H23) | GI50 (SF-539) | GI50 (M14) | GI50 (OVCAR-4) | GI50 (SK-MEL-28) | GI50 (SR) | GI50 (SN12C) | GI50 (HCC 2998) | GI50 (786-0) | GI50 (KM-20L2) | GI50 (A549) | GI50 (MDA-MB-231) | GI50 (PC-3) | GI50 (Hs-578T)
O=C(/C(=C\c1ccc(Cl)cc1)c1ccccc1)c1ccccc1 | 38.8 µM (inactive) | 65 µM (inactive) | 65.5 µM (inactive) | > 100 µM (inactive) | 38.2 µM (inactive) | 4.74 µM (inactive) | 72.6 µM (inactive) | > 100 µM (inactive) | 73.5 µM (inactive) | 26.3 µM (inactive) | > 100 µM (inactive) | 40.8 µM (inactive) | > 100 µM (inactive) | 40.5 µM (inactive) | 79.8 µM (inactive) |  |  |  |  | 
COc1c(C)cc2c(c1O)C1C3[C@H]4SC[C@@]5(NCCC6=C5NC5C=CC=CC65)C(=O)OCC(c5c6c(c(C)c(OC(C)=O)c54)OCO6)N3[C@@H](O)C(C2)N1C (some centres not stated) | < 0.01 µM (active) | < 0.01 µM (active) | < 0.01 µM (active) |  | < 0.01 µM (active) |  | < 0.01 µM (active) | < 0.01 µM (active) | < 0.01 µM (active) |  | 0.0134 µM (active) | < 0.01 µM (active) | < 0.01 µM (active) | < 0.01 µM (active) | < 0.01 µM (active) | < 0.01 µM (active) | < 0.01 µM (active) |  |  | 
CCOC1=NC(=O)CC(c2ccccc2)S1 (configuration not stated) | > 100 µM (inactive) | > 100 µM (inactive) | 49.2 µM (inactive) | > 100 µM (inactive) | > 100 µM (inactive) | > 100 µM (inactive) |  | > 100 µM (inactive) | 68.1 µM (inactive) | > 100 µM (inactive) |  |  | > 100 µM (inactive) | > 100 µM (inactive) | > 100 µM (inactive) | > 100 µM (inactive) | > 100 µM (inactive) |  |  | 
O=C(NO)C12C3C4C1C1C2C3C41C(=O)NO (configuration not stated) | > 100 µM (inactive) | > 100 µM (inactive) | > 100 µM (inactive) | > 100 µM (inactive) | > 100 µM (inactive) |  |  | > 100 µM (inactive) | > 100 µM (inactive) |  | > 100 µM (inactive) |  | > 100 µM (inactive) | > 100 µM (inactive) | > 100 µM (inactive) | > 100 µM (inactive) | > 100 µM (inactive) |  |  | 
C[C@@H](NC1CCC[C@@H]1O)c1ccccc1 (some centres not stated) | > 100 µM (inactive) |  | > 100 µM (inactive) | > 100 µM (inactive) | > 100 µM (inactive) | > 100 µM (inactive) |  |  | > 100 µM (inactive) | > 100 µM (inactive) | > 100 µM (inactive) |  | > 100 µM (inactive) | > 100 µM (inactive) | > 100 µM (inactive) | > 100 µM (inactive) | > 100 µM (inactive) |  |  | 
CCCCCCCCCC(=O)NC(Cc1ccc(O)cc1)C(=O)NCCCNCCCCNCCCNC(=O)[C@@H](N)CCCN=C(N)N (some centres not stated) | 18.9 µM (inactive) |  | > 10 µM (inactive) |  | 64.9 µM (inactive) |  | 57.7 µM (inactive) | 11 µM (inactive) | > 100 µM (inactive) |  | 19.2 µM (inactive) | 73.3 µM (inactive) | 60.7 µM (inactive) | 27.7 µM (inactive) | 61.7 µM (inactive) | > 100 µM (inactive) | 76 µM (inactive) |  |  | 
COC1(OC)C[C@H](C)[C@@]23O[C@]24C2=CC(=O)C=CC2=N[C@H]3C#C/C=C\C#C[C@]14O | 0.259 µM (active) | 0.91 µM (active) | 0.805 µM (active) |  | 0.123 µM (active) | 0.532 µM (active) | 0.411 µM (active) | 0.634 µM (active) | 0.53 µM (active) | 0.501 µM (active) | 1.08 µM (active) | 0.032 µM (active) | 0.973 µM (active) | 0.67 µM (active) | 0.0675 µM (active) |  | 0.71 µM (active) | 0.621 µM (active) | 0.753 µM (active) | 0.904 µM (active)
CSc1c([S+](C)[O-])[nH]c2cc(Br)cc(Br)c12 (configuration not stated) | 24.5 µM (inactive) | 22.1 µM (inactive) | 0.0376 µM (active) | 19.3 µM (inactive) | 18.8 µM (inactive) | 10.9 µM (inactive) | 19.3 µM (inactive) | 22.4 µM (inactive) | 25.6 µM (inactive) |  | 20.7 µM (inactive) |  | 16.7 µM (inactive) | 18.3 µM (inactive) | 16 µM (inactive) |  | 24 µM (inactive) |  |  | 
CCC(=O)CC(O)CC(C)CC(NC(=O)C1CC(C)CN1C(=O)/C=C/C(C)CC)C(=O)NC(C(=O)NC(C)(C)C(=O)NC(CC(C)C)C(=O)NC(CC(C)C)C(=O)NC(C)(C)C(=O)NC(C)(C)C(=O)NCCC(=O)NC(C)CN(C)C)C(O)C(C)C (configuration not stated) (X42-[ξPro(4ξ-Me)][X43][ξLeu(3ξ-OH)][Aib]LL[Aib][Aib][βAla]-X44; configuration not given here) | 0.611 µM (active) | 0.495 µM (active) | < 0.005 µM (active) |  | 0.0218 µM (active) | 0.0887 µM (active) | < 0.005 µM (active) | 0.292 µM (active) | 0.615 µM (active) | 0.0361 µM (active) | 0.362 µM (active) | 0.028 µM (active) | 0.261 µM (active) | 0.153 µM (active) | 1.52 µM (inactive) |  | < 0.005 µM (active) | 0.133 µM (active) | 0.00632 µM (active) | 0.0132 µM (active)
